# Values quoted from earlier work in patent publication US11419872B2, “Phosphoinositide 3-kinase and Src inhibitors for treatment of pancreatic cancer” (Innoplexus AG, priority 2020, dated 2022).
# Legend:
# [1] = for adverse events reported: literature reports
# [2] = test system: primary tumours and metastasis; conditions: pre-clinical animal models
# [3] = test system: colon carcinoma cell line CT26
# [4] = test system: gastric cancer cell line MKN-1
# [5] = test system: glioma cell line U251
# [6] = in vivo
# [7] = test system: glioma cell line LN428
# [8] = test system: pancreatic cancer cell line PANC-1; conditions: PANC-1 (Suzuki et al. 2016)
# [9] = test system: human embryonic kidney cell line HEK293
# [10] = test system: breast cancer cell line MDA-MB-231
# [11] = target: CYP3A4 (Homo sapiens, UniProt P08684)
# CYP3A4, sequence (P08684 whole entry): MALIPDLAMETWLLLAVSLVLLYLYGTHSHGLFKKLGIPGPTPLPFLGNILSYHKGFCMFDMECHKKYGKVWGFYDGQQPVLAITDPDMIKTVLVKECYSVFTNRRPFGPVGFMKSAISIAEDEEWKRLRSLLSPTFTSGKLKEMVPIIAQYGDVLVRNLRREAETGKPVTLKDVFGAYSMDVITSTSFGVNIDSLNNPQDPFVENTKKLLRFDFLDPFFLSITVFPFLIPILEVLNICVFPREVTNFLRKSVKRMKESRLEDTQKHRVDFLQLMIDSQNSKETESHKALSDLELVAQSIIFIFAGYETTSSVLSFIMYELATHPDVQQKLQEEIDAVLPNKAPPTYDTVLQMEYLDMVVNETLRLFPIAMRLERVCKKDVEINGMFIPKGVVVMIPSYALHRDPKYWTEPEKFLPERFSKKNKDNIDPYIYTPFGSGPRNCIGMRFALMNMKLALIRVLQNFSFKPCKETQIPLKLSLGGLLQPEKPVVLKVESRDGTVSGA
smiles,measurement,setting,value
"CC[C@H](Nc1ncnc2[nH]cnc12)c1nc2cccc(F)c2c(=O)n1-c1ccccc1 [Idealisib, 5-fluoro-3-phenyl-2-[(1S)-1-(7H-purin-6-ylamino)propyl] quinazolin-4-one]",adverse events reported,[1],"pneumonitis, hematological disorder, diarrhea and colitis"
"O=C(Cc1ccc(-c2ccc(OCCN3CCOCC3)cc2)cn1)NCc1ccccc1 [KX2-391, N-benzyl-2-[5-[4-(2-morpholin-4-ylethoxy)phenyl]pyridin-2-yl] acetamide]",growth of primary tumours and metastasis,[2],inhibits the growth of both primary tumours and metastasis
"O=C1CCc2ccc(OCCCCN3CCN(c4cccc(Cl)c4Cl)CC3)cc2N1 [aripiprazole, 7-[4-[4-(2,3-dichlorophenyl)piperazin-1-yl]butoxy]-3,4-dihydro-1Hquinolin-2-one]",cell viability,[3],reduced the viability
same,cell viability,[4],reduced the viability
same,cell viability,[5],reduced the viability
same,elimination half-life,[6],approximately 75 hours
same,cell viability,[7],reduced the viability
same,cell death and number of viable cells,[8],induced cell death and accordingly decreased the number of viable cells
same,cell viability,[9],reduced the viability
same,Log P,,4.55
same,cell viability,[10],reduced the viability
"COc1c(OCCCN2CCOCC2)ccc2c1N=C(NC(=O)c1cnc(N)nc1)N1CCN=C21 [copanlisib, amino-N-[7-methoxy-8-(3-morpholin-4-ylpropoxy)-2,3-dihydro-1 H-imidazo [1,2-c]quinazolin-5-ylidene] pyrimidine-5-carboxamide]",adverse events reported,[1],"cardiac disorders, glucose metabolism disorders or neurological disorders"
Cc1c(O)c(=O)ccn1C [deferiprone],adverse events reported,[1],"joint pain, stiffness or swelling"
"C[C@H](Nc1ncnc2[nH]cnc12)c1cc2cccc(Cl)c2c(=O)n1-c1ccccc1 [duvelisib, 8-Chloro-2-phenyl-3-[(1S)-1-(3H-purin-6-ylamino)ethyl]-1(2H)-isoquinolinone]",adverse events reported,[1],"diarrhea or colitis, cutaneous reactions, infections and pneumonitis"
same,safety profile,[1]; patients with advanced hematologic malignancies,manageable safety profile
same,primary metabolising enzyme,[11],primarily metabolized by CYP3A4
COc1cc(Nc2ncc(F)c(Nc3ccc4c(n3)N(COP(=O)(O)O)C(=O)C(C)(C)O4)n2)cc(OC)c1OC [fostamatinib],adverse events reported,[1],"white blood cell disorder, hematological and hepatobiliary disorders"
